From patent US20030176494A1, “Novel coumarin and chromene compounds and methods of preparation and use thereof for treating or preventing viral infections” (priority 2001, published 2003)
Converted amounts (≈) assume the structure as drawn. Where two headings read alike, the source gives them in different places.

Legend:
HIV = assay: Anti-HIV evaluation by MTT-tetrazolium method (inhibition of CPE in MT-2 / CEM-SS cells); type: cell-based; details: Human immunodeficiency virus 1, CEM-SS; read-out: Antiviral Activities (EC50) HIV
Method: This example illustrates the anti-HIV activity of various coumarin and chromene compounds which were evaluated using the published MTT-tetrazolium methods^8. Retroviral agents AZT and DDC were used as controls for comparison purposes.
The cells used for screening were the MT-2 and the human T4-lymphoblastoid cell line, CEM-SS, and were grown in RPMI 1640 medium supplemented with 10% fetal (v/v) heat-inactivated fetal calf serum and also containing 100 units/mL penicillin, 100 μg/mL streptomycin, 25 mM HEPES and 20 μg/mL gentamicin. The medium used for dilution of drugs and maintenance of cultures during the assay was the same as above. The HTLV-IIIB and HTLV-RF were propagated in CEM-SS. The appropriate amounts of the pure compounds for anti-HIV evaluations were dissolved in DMSO, then diluted in medium to the desired initial concentration. The concentrations (M medium) employed were […]; 0.001 μM; 0.0032 μM; 0.01 μM; 0.032 μM; 0.1 μM; 0.32 μM; 1 μM; 3.2 μM; 10 μM; 32 μM; and 100 μM. Each dilution was added to plates in the amount of 100 μL/well. Drugs were tested in triplicate wells per dilution with infected cells while in duplicate wells per dilution with uninfected cells for evaluation of cytotoxicity. On day 6 (CEM-SS cells) and day 7 (MT-2 cells) post-infection, the viable cells were measured with a tetrazolium salt, MTT (5 mg/mL), added to the test plates. A solution of 20% SDS in 0.001 N HCl is used to dissolve the MTT formazan produced. The optical density value was a function of the amount of formazan produced which was proportional to the number of viable cells. The percent inhibition of CPE per drug concentration was measured as a test over control and expressed in percent (T/C %).

EBV = EBV assay: superinfection of Raji or Daudi cells with P3HR-1, immunofluorescence for EA and VCA; type: cell-based, Epstein-Barr Virus (P3HR-1)
Text: There are two prototypes of infectious EBV. One is exemplified by the virus derived from supernatant fluids of the P3HR-1cell line. This cell line produces nontransforming virus that causes the production of early antigen (EA) after primary infection or superinfection of B cell lines. The other prototype is exemplified by the B-95-8 virus. This virus immortalized cord blood lymphocytes and induced tumors in marmosets. […] The virus used in our assays is P3HR-1.
Ramos is an exceptional B cell line derived from Burkitt's lymphoma tumor but containing no detectable EBV genome copies and is EBNA negative. Ramos/AW was obtained by in vitro infection of Ramos with the P3HR-1 virus and contains one resident EBV genome copy/cell. Raji is a Burkitt's lymphoma cell line containing 60 EBV genomes/cell, and will be the primary cell used for screening antiviral activity against EBV EA expression. Daudi is a low level producer that contains 152 EBV genome copies/cell. It spontaneously expresses EBV EA in 0.25%-0.5% of the cells. It will be used in follow-up studies to confirm activity. These cell lines respond to superinfection by EBV by expressing EA(D), EA(R), and VCA. All cell lines are maintained in RPMI-1640 medium supplemented by 10% FCS, L-glutamine and 100 μg/mL gentamicin. The cultures are fed twice weekly and the cell concentration adjusted to 3×10^5/mL. The cells are kept at 37° C. in a humidified atmosphere with 5% CO2.
Cells are infected with the P3HR-1 strain of EBV and the drugs to be tested are added after adsorption (45 minutes at 37° C.) and washing of the cell cultures. The cultures are incubated for two days in complete medium to allow viral gene expression. Following the 48 hr incubation period, the number of cells of each sample are counted and smears made. Monoclonal antibodies to the different EA components and VCA are then added to the cells incubated and washed. This is followed by a fluorescein conjugated rabbit anti-mouse Ig antibody; and the number of fluorescence positive cells in the smears are counted. The total number of cells in the cultures positive for EA or VCA are then calculated and compared.

HBV = HBV replication in cultures of 2.2.15 cells (HBV DNA blot hybridization); type: cell-based; details: Hepatitis B virus; read-out: Antiviral Activities (EC50) HBV
Method: Test compounds are then added daily for a continuous 9 day period. Culture medium (changed daily during the treatment period) is collected and stored for analysis of extracellular (virion) HBV DNA after 0, 3, 6, and 9 days of treatment. Treated cells are lysed 24 hours following day 9 of treatment for the analysis of intracellular HBV genomic forms. HBV DVA is then analyzed in a quantitative and qualitative manner for overall levels of HBV DNA (both extracellular and intracellular DNA) and the relative rate of HBV replication (intracellular DNA).
Both intracellular and extracellular HBV DNA are analyzed in order to (i) allow for verification of compound efficacy and (ii) provide possible data on the target site in the HBV replication pathway for the compound from examination of the pattern of viral replicative forms. The culture medium is changed daily during the treatment period to (i) prevent the buildup of potentially toxic metabolites derived from test compounds and (ii) provide an analysis of HBV virion production during discrete 24-hour intervals which enables a quantitative comparison of any effect on virion production.
The analysis of HBV DNA is performed using blot hybridization techniques (Southern and slot blot) and [^32P]-labeled HBV-specific probes. HBV DNA levels are measured by comparison to known amounts of HBV DNA standards applied to every nitrocellulose membrane (gel or slot blot). An AMBIS beta scanner, which measures the radioactive decay of the hybridized probes directly from the nitrocellulose membranes, is used for the quantitative analysis. Standard curves, generated by multiple analyses, are used to correlate CPM measurements made by the beta scanner with relative levels of target HBV DNA. The levels of HBV virion DNA released into the culture medium are analyzed by a slot blot hybridization procedure. HBV DNA levels are then compared to those at Day 0 to determine the effect of drug treatment.
The levels of RI and episomal monomers are used as an indicator of the relative level of HBV replication. Integrated HBV DNA is used to normalize the relative amounts of DNA in each lane because the levels of this class of HBV DNA would be expected to remain constant on a per cell basis. […] Inhibition of HBV DNA replication is indicated by the loss of RI without changes in the level of integrated HBV DNA.

Measles Virus = assay: Measles virus antiviral assay (CPE inhibition, neutral red uptake, virus yield); type: cell-based, Measles virus strain CC; details: Measles morbillivirus
[1] = system: Respiratory Syncytial Virus; assay: Respiratory syncytial virus antiviral assay (CPE inhibition, neutral red uptake); type: cell-based, Respiratory syncytial virus strain Utah 89; details: human respiratory syncytial virus
Rhinovirus = Rhinovirus antiviral assay (CPE inhibition, neutral red uptake, virus yield); type: cell-based; details: Enterovirus
VZV = VZV plaque reduction assay in human foreskin fibroblast cells; type: cell-based, Varicella Zoster Virus (Ellen strain)
Method: [table] Two days prior to use, HFF cells are plated into six-well plates and incubated at 37° C. with 5% CO2 and 90% humidity. On the date of assay, the drug is made up at twice the desired concentration in 2×MEM and then serially diluted 1:5 in 2×MEM using six concentrations of drug. […] The media is then aspirated from the wells and 0.2 mL of virus is added to each well in duplicate with 0.2 mL of media being added to drug toxicity wells. The plates are then incubated for one hour with shaking every fifteen minutes. […] The drug agarose mixture is applied to each well in 2 mL volume and the plates then incubated for three days, after which the cells were stained with a 1.5% solution of neutral red. At the end of 4-6 hr incubation period, the stain is aspirated, and plaques counted using a stereomicroscope at 10× magnification. The procedure is essentially the same as for the HSV plaque assay described above with two exceptions: 1. After addition of the drug, the plates are incubated for ten days. 2.

[2] = CPE inhibition, read-out: Antiviral Activities (EC50) Measles (CPE)
[3] = neutral red (NR) dye uptake, read-out: Antiviral Activities (EC50) Measles (NR)
[4] = human gammaherpesvirus 4; read-out: Antiviral Activities (EC50) EBV
[5] = CPE inhibition, read-out: Antiviral Activities (EC50) Rhinovirus (CPE)
[6] = neutral red (NR) dye uptake, read-out: Antiviral Activities (EC50) Rhinovirus (NR)
[7] = Human alphaherpesvirus 3, Fibroblast; read-out: Antiviral Activities (EC50) VZV
[8] = CPE inhibition, read-out: Antiviral Activities (EC50) Respiratory Syncitial (CPE)
[9] = neutral red (NR) dye uptake, read-out: Antiviral Activities (EC50) Respiratory Syncitial (NR)

Row | SMILES | EC50 (HIV) | EC50 (HBV) | EC50 (Measles Virus; [2]) | EC50 (Measles Virus; [3]) | EC50 (EBV; [4]) | EC50 (Rhinovirus; [5]) | EC50 (Rhinovirus; [6]) | EC50 (VZV; [7]) | EC50 [1, 8] | EC50 [1, 9] | other results
1 | CCCc1cc(=O)oc2cc(OC(C)CCO[Si](C)(C)C(C)(C)C)c3c(c12)OC(C)(C)C=C3 (stereo not drawn) | > 18 µg/mL | – | – | – | – | – | – | – | – | – | –
2 | CCCc1cc(=O)oc2cc(O)cc(O)c12 | – | > 2.2 µg/mL | > 100 µg/mL | > 100 µg/mL | – | – | – | – | – | – | EC50 (EBV; human gammaherpesvirus 4, read-out: Antiviral Activities (EC50) EBV): > 50 µg/mL; EC50 ([1]; readout not stated, read-out: Antiviral Activities (EC50) Respiratory Syncitial): 6 µg/mL (≈ 27.2 µM); EC50 (Rhinovirus; readout not stated, read-out: Antiviral Activities (EC50) Rhinovirus): 27 µg/mL (≈ 123 µM); EC50 (VZV; Human alphaherpesvirus 3, Fibroblast, read-out: Antiviral Activities (EC50) VZV): 5.9 µg/mL (≈ 26.8 µM)
3 | CCCc1cc(=O)oc2cc(O)c(C(=O)CC)c(O)c12 | > 5 µg/mL | 1 µg/mL (≈ 3.62 µM) | 3 µg/mL (≈ 10.9 µM) | 0.4 µg/mL (≈ 1.45 µM) | 8.5 µg/mL (≈ 30.8 µM) | 2 µg/mL (≈ 7.24 µM) | 5 µg/mL (≈ 18.1 µM) | > 4 µg/mL | – | – | –
4 | CCCc1cc(=O)oc2c(C(=O)CC)c(O)cc(O)c12 | – | > 3 µg/mL | 10 µg/mL (≈ 36.2 µM) | > 100 µg/mL | 0.33 µg/mL (≈ 1.19 µM) | 30 µg/mL (≈ 109 µM) | 28 µg/mL (≈ 101 µM) | > 0.8 µg/mL | 2 µg/mL (≈ 7.24 µM) | 4 µg/mL (≈ 14.5 µM) | –
5 | CCCc1cc(=O)oc2c(C(=O)CC)c(O)c3c(c12)OC(C)(C)C=C3 | > 68 µg/mL | > 3 µg/mL | 20 µg/mL (≈ 58.4 µM) | > 100 µg/mL | 27 µg/mL (≈ 78.9 µM) | – | – | 16.1 µg/mL (≈ 47 µM) | 20 µg/mL (≈ 58.4 µM) | 40 µg/mL (≈ 117 µM) | –
6 | CCCc1cc(=O)oc2cc(O[C@H](C)[C@@H](C)CO)c3c(c12)OC(C)(C)C=C3 | > 2 µg/mL | – | – | – | – | – | – | – | – | – | –
7 | CCCc1cc(=O)oc2cc(O[C@H](C)[C@@H](C)CO[Si](C)(C)C(C)(C)C)c3c(c12)OC(C)(C)C=C3 | 7.2 µg/mL (≈ 14.8 µM) | – | – | – | – | – | – | – | – | – | –
8 | CCCc1cc(=O)oc2c(C(=O)C(C)(O)C(C)O)c(O)c3c(c12)OC(C)(C)C=C3 (stereo not drawn) | > 24 µg/mL | > 4 µg/mL | 20 µg/mL (≈ 49.7 µM) | 40 µg/mL (≈ 99.4 µM) | – | 0.5 µg/mL (≈ 1.24 µM) | 1 µg/mL (≈ 2.48 µM) | 19.9 µg/mL (≈ 49.4 µM) | 50 µg/mL (≈ 124 µM) | 40 µg/mL (≈ 99.4 µM) | –
9 | CCCc1cc(=O)oc2c3c(c4c(c12)OC(C)(C)[C@H](O)[C@H]4OC(=O)c1cccc(Cl)c1)O[C@H](C)[C@@H](C)[C@@H]3O | 8.4 µg/mL (≈ 15.5 µM) | – | – | – | – | – | – | – | – | – | –
10 | CCCc1cc(=O)oc2cc(OC(=O)C(C)(C)C)cc(O)c12 [drawing 26] | – | > 3 µg/mL | – | – | 1.1 µg/mL (≈ 3.61 µM) | – | – | 83 µg/mL (≈ 273 µM) | – | – | –
